Source: PMC12637020, “Synthesis and biological evaluation of novel hydrazone derivatives for the treatment of Alzheimer's disease” (RSC Advances, 2025)

Assays:
BChE enzyme = BChE enzyme (Homo sapiens, UniProt P06276); test: biochemical; settings: for inhibition at 1000 µM: read-out: BChE% inhibition 10^−3 M; for inhibition at 100 µM: read-out: BChE% inhibition 10^−4 M
Description: (§1) The assay was completed in two steps.
(§2) The potential inhibitory effects of the obtained molecules on the AChE and BChE enzymes was examined using a variation of the Ellman method.[31,33,41–43] Distilled water from the Millipore/Milli-Q purification apparatus was utilized at every stage of the biological activity investigations during the evaluation process. In less than a week, all the solutions required for the biological investigation were meticulously prepared from scratch. A “BioTek-Precision Power (United States)” robotic pipetting system was utilized to distribute the prepared solutions and apply the test compounds and enzyme–substrate solutions to 96-well plates. The “BioTek-Synergy H1 Microplate Reader (United States)” was employed to establish and follow the enzyme protocol for spectrophotometric measurements. Solutions of the compounds were prepared at two different concentrations, 10^−3 M and 10^−4 M, using dimethylsulfoxide (DMSO) as 2% solution, and these were used in biological activity studies.

[1] = system: NIH/3T3 mouse embryonic fibroblast cell line; test: MTT cytotoxicity test in NIH/3T3 cell line; format: cell-based; settings: for Selectivity index: IC50 (NIH3T3)/IC50 (AChE); for IC50: Mus musculus, MTT, NIH3T3 fibroblast cells
Method: The IC50 values of the compounds were determined by nonlinear regression analysis, allowing the cytotoxic properties of the compounds to be interpreted. The molecules D1f and D1c were active against AChE enzymes.
For cytotoxicity tests, the NIH/3T3 mouse embryonic fibroblast cell line (ATCC® CRL-1658TM, London, UK) was employed. The supplier's recommendation served as the basis for the NIH/3T3 cells' incubation time. In each well of the 96-well plates, […] NIH/3T3 cells were planted. The MTT assay was performed in compliance with the previously mentioned standards.[29,35]

AChE enzyme = AChE enzyme (Homo sapiens, UniProt P22303); test: biochemical; format: biochemical; settings: for inhibitory activity: at concentrations of 1000 and 100 µM; for inhibition at 1000 µM: read-out: AChE% inhibition 10^−3 M; for inhibition at 100 µM: read-out: AChE% inhibition 10^−4 M; for IC50: tested at 10 to 0.001 µM
Description: as §1, §2

BChE enzyme, sequence (P06276 29-602, species assumed): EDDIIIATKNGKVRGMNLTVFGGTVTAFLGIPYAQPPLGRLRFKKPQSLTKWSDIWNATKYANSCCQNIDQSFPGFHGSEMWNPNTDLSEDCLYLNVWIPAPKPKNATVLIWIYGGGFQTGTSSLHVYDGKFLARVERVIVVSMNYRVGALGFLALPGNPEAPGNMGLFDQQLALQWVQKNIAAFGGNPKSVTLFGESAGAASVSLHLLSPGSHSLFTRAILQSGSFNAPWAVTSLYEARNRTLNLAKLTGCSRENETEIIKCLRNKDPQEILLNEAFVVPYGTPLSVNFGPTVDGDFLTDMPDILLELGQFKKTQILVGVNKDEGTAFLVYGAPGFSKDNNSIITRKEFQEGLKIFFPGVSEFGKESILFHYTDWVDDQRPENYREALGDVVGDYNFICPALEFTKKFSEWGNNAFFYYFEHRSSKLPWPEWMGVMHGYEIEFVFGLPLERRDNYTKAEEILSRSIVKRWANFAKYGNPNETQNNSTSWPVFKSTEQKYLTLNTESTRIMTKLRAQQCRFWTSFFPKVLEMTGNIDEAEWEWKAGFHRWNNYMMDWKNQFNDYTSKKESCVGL
AChE enzyme, sequence (P22303 32-614): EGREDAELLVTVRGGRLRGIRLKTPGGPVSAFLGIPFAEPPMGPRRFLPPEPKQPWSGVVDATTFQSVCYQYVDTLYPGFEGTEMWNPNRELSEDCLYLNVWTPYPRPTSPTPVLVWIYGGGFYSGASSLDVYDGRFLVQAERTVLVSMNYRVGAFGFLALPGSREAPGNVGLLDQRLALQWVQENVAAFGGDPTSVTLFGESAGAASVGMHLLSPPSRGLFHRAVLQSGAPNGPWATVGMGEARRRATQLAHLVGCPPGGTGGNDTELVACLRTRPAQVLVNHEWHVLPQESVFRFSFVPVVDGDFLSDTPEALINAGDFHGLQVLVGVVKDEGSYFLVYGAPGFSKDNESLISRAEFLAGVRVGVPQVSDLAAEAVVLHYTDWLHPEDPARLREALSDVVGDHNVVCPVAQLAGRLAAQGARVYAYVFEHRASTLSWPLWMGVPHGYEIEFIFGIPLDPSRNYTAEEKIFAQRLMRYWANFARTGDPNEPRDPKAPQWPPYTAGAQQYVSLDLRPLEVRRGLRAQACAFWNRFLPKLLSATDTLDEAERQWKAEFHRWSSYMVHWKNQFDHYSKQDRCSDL

Structure (SMILES) | IC50 (BChE enzyme) [µM] | inhibition at 1000 µM (BChE enzyme) [%] | inhibition at 100 µM (BChE enzyme) [%] | Selectivity index [1] | IC50 [1] [µM] | inhibitory activity (AChE enzyme) | inhibition at 1000 µM (AChE enzyme) [%] | inhibition at 100 µM (AChE enzyme) [%] | IC50 (AChE enzyme) [µM]
CC(=NN=c1scc(-c2ccc(C#N)cc2)n1C)c1ccc(N2CCCCC2)cc1 [D1f, 4-(-3-Methyl-2-((1-(4-(piperidin-1-yl)phenyl)ethylidene)hydrazineylidene)-2,3-dihydrothiazol-4-yl)benzonitrile] | > 1000 | 29 ± 1.24 | 17 ± 0.784 | 85.231 | 3.32 ± 0.155 | more than 50% | 96.8 ± 2.09 | 91.2 ± 2.43 | 0.039 ± 0.001
CC(=NN=c1scc(-c2ccc([N+](=O)[O-])cc2)n1C)c1ccc(N2CCCCC2)cc1 [D1c, 3-Methyl-4-(4-nitrophenyl)-2-((1-(4-(piperidin-1-yl)phenyl)ethylidene)hydrazineylidene)-2,3-dihydrothiazole] | > 1000 | 24.4 ± 0.941 | 21.6 ± 0.852 | 8.310 | 2.41 ± 0.109 | more than 50% | 94.6 ± 2.35 | 90.3 ± 1.53 | 0.29 ± 0.01
CCn1c(-c2ccc(Cl)cc2)csc1=NN=C(C)c1ccc(N2CCCCC2)cc1 [D3d, 4-(4-Chlorophenyl)-3-ethyl-2-((1-(4-(piperidin-1-yl)phenyl)ethylidene)hydrazineylidene)-2,3-dihydrothiazole] | > 1000 | 37.5 ± 1.46 | 21.3 ± 1.07 |  |  |  | 32.3 ± 1.44 | 23.3 ± 1.05 | > 1000
C=CCn1c(-c2ccc([N+](=O)[O-])cc2)csc1=NN=C(C)c1ccc(N2CCCCC2)cc1 [D2c, 3-Allyl-4-(4-nitrophenyl)-2-((1-(4-(piperidin-1-yl)phenyl)ethylidene)hydrazineylidene)-2,3-dihydrothiazole] | > 1000 | 35 ± 1.14 | 30.7 ± 1.15 |  |  |  | 67 ± 1.85 | 31.4 ± 0.932 | > 100
CC(=NN=c1scc(-c2ccc(C)cc2C)n1C)c1ccc(N2CCCCC2)cc1 [D1i, 4-(2,4-Dimethylphenyl)-3-methyl-2-((1-(4-(piperidin-1-yl)phenyl)ethylidene)hydrazineylidene)-2,3-dihydrothiazole] | > 1000 | 40.9 ± 1.86 | 29.5 ± 0.846 |  |  |  | 59.3 ± 1.29 | 13.7 ± 0.52 | > 100
